Series [1] can be described thus: Antiinflammatory activity in human neutrophils assessed as inhibition of opsonized zymosan A-mediated superoxide anions production by WST-1 based respiratory burst assay. The format is functional, cell-based, Neutrophil. In general terms: Tetrazolium assays rely on reduction of a dye to a coloured formazan, in cell work by metabolically active cells.
In series [2] the test system is NIH3T3. The experiment in a line: Cytotoxicity against mouse 3T3 cells at 100 uM after 72 hrs by MTT assay. The format is cell-based. The conditions noted are these: nih3t3, 72 h.
Series [3] relates to J774.2. The series is described as follows: Induction of LPS-induced NO production in mouse J774.2 cells at 60 uM after 48 hrs by spectrophotometry. The format is functional.
For series [4], the system named is THP-1. The series is described as follows: Induction of LPS-B-induced TNF-alpha production in human THP1 cells at 60 uM after 4 hrs. The format is functional.
Series [5] deals with J774.2. The experiment in a line: Antiinflammatory activity in mouse J774.2 cells assessed as inhibition of LPS-induced NO production at 60 uM after 48 hrs by spectrophotometry. The format is functional. Particulars: J774.2, 48 h; call rule not given here.
For series [6], the system named is THP-1. The experiment in a line: Antiinflammatory activity in human THP1 cells assessed as inhibition of LPS-B-induced TNF-alpha production at 60 uM after 4 hrs. The format is functional. Particulars: THP-1, 4 h.
Setting [7] is: Homo sapiens, Neutrophil, read-out: IC50.

Usually IC50 stands for the midpoint of a concentration-inhibition curve. As to `COc1c(OC(C)C)cc2c(c1OC(C)C)[C@@H]1O[C@H](CO)[C@@H](O)[C@H](O)[C@H]1OC2=O`, the IC50 in series [1] (setting [7]) stood at 303 µM. Besides, the values for the Activity result in series [2], in series [3] and in series [4] were “Non-toxic”, 5.5% and 8.44%, respectively.

For orientation: inhibition means the change of the read-out against control, counted positive when it falls. Turning to `C=CCCOc1cc2c(c(OCCC=C)c1OC)[C@@H]1O[C@H](CO)[C@@H](O)[C@H](O)[C@H]1OC2=O`, the IC50 in series [1] (setting [7]) worked out at 288 µM. Moreover, the Activity entry in series [2] was “Non-toxic”; in series [4] it was 13.27%. In series [5], the inhibition at 60 µM came out at 3.6%.

As to `CCCCCOc1cc2c(c(OCCCCC)c1OC)[C@@H]1O[C@H](CO)[C@@H](O)[C@H](O)[C@H]1OC2=O`, the IC50 in series [1] (setting [7]) was 296 µM. The Activity entry in series [2] is “Non-toxic”. In addition, the inhibition at 60 µM is 3.4% in series [5] and 20.9% in series [6].

Take `CCOc1cc2c(c(OCC)c1OC)[C@@H]1O[C@H](CO)[C@@H](O)[C@H](O)[C@H]1OC2=O`: the half-maximal inhibitory concentration (IC50) in series [1] (setting [7]) came out at 322 µM. In series [2], the Activity result is “Non-toxic”. The inhibition at 60 µM stood at 54.5% in series [5] and 98.6% in series [6].

For the compound `COc1cc2c(c(OC)c1OC)[C@@H]1O[C@H](CO)[C@@H](O)[C@H](O)[C@H]1OC2=O`, in series [1] (neutrophil), the IC50 result is “Not Active”. Besides, the Activity entry in series [2] is “Non-toxic”. The inhibition at 60 µM was found to be 47.6% in series [5] and 0.44% in series [6].

With `C#CCOc1cc2c(c(OCC#C)c1OC)[C@@H]1O[C@H](CO)[C@@H](O)[C@H](O)[C@H]1OC2=O`, in series [1] (setting [7]), the IC50 is 382 µM. For the same compound, the Activity entry was “Non-toxic” in series [2] and 27.56% in series [4]. For the same compound, the inhibition at 60 µM in series [5] turned out to be 19.4%.

On to `CCCCCCCOc1cc2c(c(OCCCCCCC)c1OC)[C@@H]1O[C@H](CO)[C@@H](O)[C@H](O)[C@H]1OC2=O`, for which, in series [1] (setting [7]), the IC50 amounted to 213 µM. The Activity entry in series [2] was “Non-toxic”. For the same compound, the inhibition at 60 µM in series [5] is 18%; in series [6], 28.7%.

For `C=CCCCCOc1cc2c(c(OCCCCC=C)c1OC)[C@@H]1O[C@H](CO)[C@@H](O)[C@H](O)[C@H]1OC2=O`, the IC50 in series [1] (setting [7]) turned out to be 270 µM. The Activity result in series [2] was “Non-toxic”. Also, the results for the inhibition at 60 µM in series [5] and in series [6] were 9.4% and 17.7%, respectively.

Consider `C=CCOc1cc2c(c(OCC=C)c1OC)[C@@H]1O[C@H](CO)[C@@H](O)[C@H](O)[C@H]1OC2=O`, for which the IC50 in series [1] (setting [7]) came out at 333 µM. Further, the Activity entry is given as “Non-toxic” in series [2] and 18.41% in series [4]. Also, the inhibition at 60 µM in series [5] came to 5.5%.

For `COc1c(OCC#N)cc2c(c1OCC#N)[C@@H]1O[C@H](CO)[C@@H](O)[C@H](O)[C@H]1OC2=O`, in series [1] (setting [7]), the 50% inhibitory concentration (IC50) worked out at 416 µM. The values for the Activity entry in series [2] and in series [4] were “Non-toxic” and 26.21%, respectively. Further, the inhibition at 60 µM in series [5] worked out at 13.3%.

For the compound `CCCCOc1cc2c(c(OCCCC)c1OC)[C@@H]1O[C@H](CO)[C@@H](O)[C@H](O)[C@H]1OC2=O`, in series [1] (setting [7]), the IC50 came out at 403 µM. The Activity entry in series [2] is recorded as “Non-toxic”. In addition, the inhibition at 60 µM in series [5] was 31.2%; in series [6], 26.3%.

Take `COc1c(OCC(=O)OC(C)(C)C)cc2c(c1OCC(=O)OC(C)(C)C)[C@@H]1O[C@H](CO)[C@@H](O)[C@H](O)[C@H]1OC2=O`: in series [1] (setting [7]), the IC50 was 482 µM. For the same compound, in series [2], the Activity result is recorded as “Non-toxic”. For the same compound, the inhibition at 60 µM turned out to be 16.3% in series [5] and 9.6% in series [6].

As to `CCCCCCCCOc1cc2c(c(OCCCCCCCC)c1OC)[C@@H]1O[C@H](CO)[C@@H](O)[C@H](O)[C@H]1OC2=O`, in series [1] (setting [7]), the IC50 is 222 µM. Further, the results for the Activity entry in series [2] and in series [4] were “Non-toxic” and 3.4%, respectively. Besides, in series [5], the inhibition at 60 µM is 18%.

On to `CCCOc1cc2c(c(OCCC)c1OC)[C@@H]1O[C@H](CO)[C@@H](O)[C@H](O)[C@H]1OC2=O`, for which the IC50 entry in series [1] (neutrophil) is reported as “Not Active”. The Activity result is recorded as “Non-toxic” in series [2] and 5.57% in series [4]. Moreover, in series [5], the inhibition at 60 µM was 8.9%.

`CCOC(=O)COc1cc2c(c(OCC(=O)OCC)c1OC)[C@@H]1O[C@H](CO)[C@@H](O)[C@H](O)[C@H]1OC2=O`: in series [1] (setting [7]), the IC50 amounted to 253 µM. In addition, the Activity entry in series [2] is on record as “Non-toxic”. Also, the inhibition at 60 µM is 86.8% in series [5] and 96.2% in series [6].

On to `COc1c(O)cc2c(c1O)[C@@H]1O[C@H](CO)[C@@H](O)[C@H](O)[C@H]1OC2=O` [BERGENIN], for which the IC50 in series [1] (setting [7]) was 303 µM. In addition, the results for the Activity entry in series [2] and in series [4] were “Non-toxic” and 7.91%, respectively. Besides, the inhibition at 60 µM in series [5] amounted to 4.3%.

In the case of `COc1ccc2c(c1)c(CC(=O)O)c(C)n2C(=O)c1ccc(Cl)cc1` [INDOMETHACIN], the IC50 in series [1] (setting [7]) was 271 µM.

With `CNC(=N)NCCC[C@H](N)C(=O)O` [TILARGININE ACETATE], the inhibition at 60 µM in series [5] was 40%.

These data come from ChEMBL document CHEMBL2016563, “Synthesis of new bergenin derivatives as potent inhibitors of inflammatory mediators NO and TNF-α” (Bioorg Med Chem Lett, 2012).
